Assay results reported in patent US20110224213A1, “Use of Glutaric Acid Derivatives or the Pharmaceutically Acceptable Salts Thereof as Anti-Arrhythmic Agents” (priority 2008, published 2011).
Structures can show the parent of a compound that is named as a salt. Where two headings read alike, the source gives them in different places. Marks after values point to notes of the source that are not given here.

Assays:
[1] = tested on: occlusive arrhythmia in cats; assay: Early occlusive arrhythmia in cats (coronary artery ligation); details: for effect on experimental lethality: 23% lethality in the control; for anti-arrhythmic effect: dose of 0.05 mg/kg, intravenous
[2] = tested on: adrenal arrhythmia in mice; format: in vivo
[3] = LD50 upon oral administration in mice; details: mouse, in vivo, per/os
Experimental: (§1) This model makes it possible to assess the scope of the therapeutic action of the presented compounds and the N-succinyl-D,L-tryptophane dipotassium salt. Assessment of the scope of the therapeutic action was carried out in accordance with the value of the anti-arrhythmic index (AAI), determined as the ratio LD50 upon the oral method of administering to ED50 on an aconitic model of arrhythmia.

[4] = tested on: aconitic arrhythmia in mice; assay: animal or person; format: in vivo
Experimental: Arrhythmia was reproduced according to the method of Ju. I. Vikhlyayev and N. V. Kaverina (1958) [Kaverina N. V., Berdyaev S. Ju., Kuschuk E. P., Paskhina O. E. Methodical indications in respect to a study of the anti-arrhythmic activity of new pharmacological substances. Manual on experimental (pre-clinical) study of new pharmacological substances. Edited by V. P. Fisenko.—Moscow. 2000. Page 210]. Aconitine nitrate was administered to the animals in a dose of 50 μg/kg intravenously.
as §1

[5] = mice, dose 0.05 mg/kg, introduced internally
[6] = mice, dose 0.5 mg/kg, introduced internally
[7] = mice, 0.05 and 0.5 mg/kg, introduced internally

SMILES	Animals died in group ([1]; dose 0.05 mg/kg, intravenously)	Animals with ventricular arrhythmia (%) ([1]; dose 0.05 mg/kg, intravenously)	Number of animals with ventricular arrhythmia ([1]; dose 0.05 mg/kg, intravenously)	Time of occurrence of arrhythmia ([1]; dose 0.05 mg/kg, intravenously)	Animals died in group ([1]; dose 0.5 mg/kg, intravenously)	Animals with ventricular arrhythmia (%) ([1]; dose 0.5 mg/kg, intravenously)	Animals lethal (%) [2, 5]	Animals with AV blockage (%) [2, 5]	Animals with ventricular arrhythmia (%) [2, 5]	Lifetime [2, 5]	Number of animals in groups lethal [2, 5]	Number of animals in groups with AV blockage [2, 5]	Number of animals in groups with ventricular arrhythmia [2, 5]	Animals lethal (%) [2, 6]	Animals with AV blockage (%) [2, 6]	Animals with ventricular arrhythmia (%) [2, 6]	Lifetime [2, 6]	Number of animals in groups lethal [2, 6]	Number of animals in groups with AV blockage [2, 6]	Number of animals in groups with ventricular arrhythmia [2, 6]	also measured
O=C(O)CCCC(=O)N[C@@H](Cc1c[nH]c2ccccc12)C(=O)O [Compound II, N^α-glutaryl-L-tryptophane]	1	86%	6	17 ± 2 min	0	29%	(50%)	(0%)	(0%)	22 ± 3.4 min	7*	0*	0*	(50%)	(29%)	(0%)	19 ± 2.8 min	7*	4*	0*	Animals died in group (%) ([1]; dose 0.05 mg/kg, intravenously): 14%; Number of animals with ventricular arrhythmia ([1]; dose 0.5 mg/kg, intravenously): 2; Time of occurrence of arrhythmia ([1]; dose 0.5 mg/kg, intravenously): 17 to 20 min
CCCCc1oc2ccccc2c1C(=O)c1cc(I)c(OCCN(CC)CC)c(I)c1 [Cordaron, amiodaron, reference compound]																					Animals died in group ([1]; dose 1.0 mg/kg, intravenously): 0; Animals with ventricular arrhythmia (%) ([1]; dose 1.0 mg/kg, intravenously): 40%; Number of animals with ventricular arrhythmia ([1]; dose 1.0 mg/kg, intravenously): 4; Time of occurrence of arrhythmia ([1]; dose 1.0 mg/kg, intravenously): 21 ± 6 min
CC(C)NCC(O)COc1cccc2ccccc12 (stereo not drawn) [Propranolol, propranolol, reference compound]																					Animals died in group ([1]; dose 1.0 mg/kg, intravenously): 0; Animals with ventricular arrhythmia (%) ([1]; dose 1.0 mg/kg, intravenously): 28%; Number of animals with ventricular arrhythmia ([1]; dose 1.0 mg/kg, intravenously): 2; Time of occurrence of arrhythmia ([1]; dose 1.0 mg/kg, intravenously): 24 ± 1 min; Animals with AV blockage (%) ([2]; mouse, in vivo, 0.1 mg/kg): (36%); Animals with ventricular arrhythmia (%) ([2]; mouse, in vivo, 0.1 mg/kg): (29%); Lifetime ([2]; mouse, in vivo, 0.1 mg/kg): 20 ± 4 min; Number of animals in groups with AV blockage ([2]; mouse, in vivo, 0.1 mg/kg): 5*; Number of animals in groups with ventricular arrhythmia ([2]; mouse, in vivo, 0.1 mg/kg): 4*; Animals with AV blockage (%) ([2]; mouse, in vivo, 0.5 mg/kg): (29%); Animals with ventricular arrhythmia (%) ([2]; mouse, in vivo, 0.5 mg/kg): (50%); Lifetime ([2]; mouse, in vivo, 0.5 mg/kg): 23 ± 4 min; Number of animals in groups with AV blockage ([2]; mouse, in vivo, 0.5 mg/kg): 4*; Number of animals in groups with ventricular arrhythmia ([2]; mouse, in vivo, 0.5 mg/kg): 7*
O=C(O)CCCC(=O)NCCc1c[nH]cn1 [Compound IV, glutaryl histamine]							(79%)	(21%)	(29%)	24 ± 3 min	11	3*	4*	(100%)	(29%)	(14%)	18 ± 0.8 min	14	4*	2*	effect on life span of the test animals ([2]; mouse, in vivo, 0.05 mg/kg): effectively increased the life span
O=C(O)CCCC(=O)N[C@@H](Cc1c[nH]cn1)C(=O)O [Compound III, N^α-glutaryl-L-histidine]	0	25%	2	18 ± 2 min	0	17%	(86%)	(29%)	(43%)	32 ± 7 min	12	4*	6*	(79%)	(21%)	(29%)	33 ± 5 min	11	3*	4*	effect on experimental lethality [1]: prevented experimental lethality; Number of animals with ventricular arrhythmia ([1]; dose 0.5 mg/kg, intravenously): 1; Time of occurrence of arrhythmia ([1]; dose 0.5 mg/kg, intravenously): 18 min; anti-arrhythmic effect [1]: had reliable activity; LD50 [3]: 4500 mg/kg; effect on life span of the test animals [2, 7]: effectively increased the life span; ED50 ([4]; Mus musculus, iv): 0.185 ± 0.083 mg/kg; prevention of atrioventricular heart arrhythmia caused by aconitine nitrate ([4]; mice, administration internally): effectively prevents atrioventricular heart arrhythmia
O=C(O)CCCC(=O)NCCc1ccccn1 [Compound X]							(70%)	(70%)	(60%)	13 ± 4 min	7*	7	6*	(70%)	(60%)	(30%)	27 ± 6 min	7*	6	3*	
O=C(O)CCCC(=O)N[C@@H](Cc1c[nH]c2ccccc12)C(=O)O [Compound II mono-sodium salt, mono-sodium salt N^α-glutaryl-L-tryptophane]							(50%)	(0%)	(0%)	22 ± 3.4 min	7*	0*	0*	(50%)	(36%)	(0%)	19 ± 2.8 min	7*	5*	0*	effect on lethality of the test animals [2, 7]: statistically reliably reduced the lethality; effect on ventricular ectopic complexes ([2]; mice, introduced internally): elimination of the ventricular ectopic complexes in all of the test animals
O=C(O)CCCC(=O)NCCc1c[nH]c2ccccc12 [Compound XIII mono-sodium salt]							(43%)	(43%)	(36%)	17 ± 4 min	6*	6*	5*	(36%)	(29%)	(21%)	28 ± 9 min	5*	4*	3*	
O=C(O)CCCC(=O)NCCc1ccncc1 [Compound IX]							(80%)	(100%)	(70%)	21 ± 6 min	8	10	7	(60%)	(50%)	(20%)	32 ± 4 min	6*	5	2*	
O=C([O-])CCC(=O)NC(Cc1c[nH]c2ccccc12)C(=O)[O-].[K+].[K+] (racemic) [N-succinyl-D,L-tryptophane dipotassium salt, reference compound]	0	50%	3	19 ± 3 min	0	17%	(100%)	(43%)	(43%)	16 ± 4 min	14	6*	6*	(100%)	(57%)	(43%)	16 ± 4 min	14	8	6*	effect on experimental lethality [1]: prevented experimental lethality; Number of animals with ventricular arrhythmia ([1]; dose 0.5 mg/kg, intravenously): 1; Time of occurrence of arrhythmia ([1]; dose 0.5 mg/kg, intravenously): 21 min; anti-arrhythmic effect [1]: did not demonstrate a reliable anti-arrhythmic effect; animals died after administration of the substance ([4]; per/os, dose of 50 mg/kg, mice): 50%; test animals in which arrhythmia develops ([4]; per/os, interval of doses 0.05-5 mg/kg, mice): 71-100%
